Data published in ChEMBL document CHEMBL3507680, “University of Dundee, Gates Library screen for HepG2 cell viability”.

experiment: Human HepG2 cell viability assay in 384 well format; assay type: toxicity, cell-based; design: dose 125 nL, time 70.5 hour; concentration not given beside the values; details: HepG2 cells, read-out: Inhibition

SMILES	cytotoxicity at 70.5 h [%]
Cc1occc1C(=O)N1C[C@@H](C(=O)NCc2ccco2)C[C@H]2OCC[C@H]21	-10.4
CCn1ccnc1CN1CCN(Cc2ccc(C#N)cc2)CC1	28.9
Cc1cc(C)n(C2CCCN(C(=O)Cc3ccc(C#N)cc3)C2)n1 (stereo unspecified)	-14.4
CCOCC1CN(c2ccncn2)Cc2cnn(CC3CC3)c21 (stereo unspecified)	-7.56
Cc1occc1C(=O)N1CCc2c(CNc3ncccn3)cncc2C1	-1.28
Cc1cnn(C2CN(CC(=O)NCCc3c[nH]c4ccccc34)C2)c1	-9.92
CCC[C@H]1CN(Cc2cc(C)no2)C[C@@H]1NC(=O)C1(COC)CCC1	-10
O=C(Nc1ccc(-c2ccccc2)cn1)C1CCN(C(=O)C2CC2)CC1	-1.82
COCc1cccc(C(=O)N2CCN(C3=NCC(C)(C)S3)CC2)c1	-3.27
CCOC(=O)C1(Cc2ccccc2)CCCN(Cc2nccn2CC)C1 (stereo unspecified)	-0.0866
CCCS(=O)(=O)NCc1nc(C)cc(N2CCCC2)n1	-5.66
CC(C)N(C)CC(=O)NCc1ccccc1N1CCN(C)CC1	9.3
Cc1noc([C@@]23CCO[C@@H]2CCN(CC2CCOCC2)C3)n1	-5.71
O=S(=O)(C1CC1)N1CCOCC2(CCN(c3ccccn3)C2)C1 (stereo unspecified)	36.2
CN(Cc1cccc(C#N)c1)C(=O)C1CC(c2cccc(F)c2)=NO1 (stereo unspecified)	-6.75
Cc1cnn(CC2CCCN2C(=O)Cn2nc(C)c(Cl)c2C)c1 (stereo unspecified)	-1.94
O=C1CCOC[C@]2(CN(Cc3ccccc3)C[C@H]2c2cccnc2)N1	15.4
CNC(=O)[C@H]1C[C@@H]2CCN(Cc3ccncc3)C[C@H]2O1	-6.07
O=C(C(CNCc1ccccn1)c1ccccc1)N1CCOCC1 (stereo unspecified)	0.375
O=C(NCC(=O)N1CCc2ccccc2C1)c1ccoc1	10.2
CCOc1ccc(S(=O)(=O)C(C)C(=O)Nc2cc(C)no2)cc1 (stereo unspecified)	-4.64

SMILES	cytotoxicity at 70.5 h [%]
CCN1CC(=O)NCC12CCN(C(=O)c1ccco1)C2 (stereo unspecified)	-3.25
COCCCN(Cc1ccccn1)S(=O)(=O)N(C)C	26.3
CCOc1ccc(CC(=O)N2CCCC(n3nc(C)nc3C)C2)cc1 (stereo unspecified)	-5.27
O=C(c1ccsc1)N1CCC2(CC1)COCCN(Cc1ccncc1)C2	-7.46
CCN(Cc1noc(C)n1)C(=O)CCc1scnc1C	3.89
CC(=O)N1Cc2ccccc2CC2(CCCCN2C)C1 (stereo unspecified)	21.1
Cc1noc([C@@H]2C[C@H]3CN(Cc4cc(C)on4)C[C@H]3O2)n1	-4.39
Cc1c(C(=O)NCCCC(N)=O)sc2ccc(F)cc12	25.3
Cc1ccc(C(=O)N2CCc3c(CN4CCCC4)nn(C)c3C2)cc1C	-2.24
COCCN1C[C@H]2CCN(C(C)=O)CC[C@H]2S1(=O)=O	0.94
O=C(Nc1ccccc1)C1CN(C(=O)c2cccs2)CC12CCOCC2 (stereo unspecified)	-0.505
CC(c1ccc(Cl)cc1)N1CCN(CCS(N)(=O)=O)CC1 (stereo unspecified)	-0.779
N#Cc1cccc(NC2CC(=O)N(Cc3cccc(F)c3)C2)n1 (stereo unspecified)	-8.43
CC(O)CC(C)(C)CNC(=O)NCc1cccc(-n2ccnc2)c1 (stereo unspecified)	-7.65
O=C(CC1CCc2ccccc21)NC1(C(=O)O)CCCC1 (stereo unspecified)	22.9
CS(=O)(=O)N1CCc2ccc(=O)n(CC3CCOCC3)c2CC1	-7.42
COCCN1CC(C(=O)N(C)Cc2ccc(Cl)s2)CC1=O (stereo unspecified)	-10.5
CN(C)CC(=O)N1CCOCC2(C1)CN(c1ccccc1)C(=O)CO2 (stereo unspecified)	-45.3
Cc1ccc(C(=O)N2CCN(c3ccnc4ccsc34)CC2)o1	-12
Cc1cccc(-c2nccnc2C2CCCN(C)C2)c1C (stereo unspecified)	18.2
O=C(NCCCn1cccn1)N1CCCC1c1ccsc1 (stereo unspecified)	-9.1

SMILES	cytotoxicity at 70.5 h [%]
COCCNc1ncnc2c1CCN(C(=O)CC1CCC(=O)N1)CC2 (stereo unspecified)	-12.7
CCCn1nc(C)c2c1NC(=O)CC2c1ccc(CN2CCCC2)s1 (stereo unspecified)	-9.08
O=C(NC1CCCN(CCCc2ccccc2)C1)c1ccc(Cl)s1 (stereo unspecified)	-4.66
CC(C)OCCC(=O)N1CCN(CC(O)c2ccccc2)CC1 (stereo unspecified)	-1.62
Cc1ccc(S(=O)(=O)N2CCCC3(CCCN3S(C)(=O)=O)C2)cc1F (stereo unspecified)	0.261
CC(=O)c1cccc(OCCCC(=O)N(C)Cc2cnn(C)c2)c1	9.09
Cn1ncnc1NS(=O)(=O)c1ccc(F)cc1Cl	-1.04
c1cncc(-c2nccc(CN3CCC(N4CCCCC4)CC3)n2)c1	18.5
Cn1cccc1CNCC1CCCn2cc(C(C)(C)C)nc21 (stereo unspecified)	5.68
O=C(Nc1cnn(CCN2CCOCC2)c1)c1ccccn1	-4.34
O=C(CCc1ccccc1)N1CC(n2cncn2)C1	-7.88
CC(NC(=O)C1CCCCC1)c1cc(O)nc(-c2cccnc2)n1 (stereo unspecified)	-4.35
Cc1nc(NC(=O)OC(C)(C)C)sc1C#N	-6.61
COc1ccccc1C1CNC(=O)c2nc(-c3cn(C)nc3C)[nH]c2C1 (stereo unspecified)	8.73
CS(=O)(=O)c1ccc(O[C@H]2COCCN(C(=O)c3ccno3)C2)cc1	-2.76
O=C(c1cnccn1)N1CCC2(CCN(Cc3ccsc3)C2)CC1	-5.07
O=C(Cc1ccsc1)N1C[C@@H]2COC[C@]2(COCc2cccnc2)C1	-0.0283
COCC(=O)NC1(c2cccc(C(F)(F)F)c2)CCC1	-14.5
Cc1nc(N2CCOCC2)ncc1-c1cc(O)nc(N2CCCCC2)n1	14.1
CCC(C)C(=O)NCCCn1nc(C)cc1C (stereo unspecified)	-13.2
Cc1nccn1C1CCCN(C(=O)c2cccc(Cn3ccnc3)c2)C1 (stereo unspecified)	-1.32

SMILES	cytotoxicity at 70.5 h [%]
CC(C)c1nnc(C2CCN(CC(=O)Nc3cccnc3)CC2)o1	-5.94
Cc1ncc2c(n1)CN(Cc1nc(Cc3ccccc3)no1)CC2	-8.87
Cc1c(COC(C)C)cccc1NC(=O)N1CC[C@H](O)C1	-6.27
Cc1cnn(CC2CCCN2Cc2cc(=O)n3cc(C)ccc3n2)c1 (stereo unspecified)	-1.28
O=C(c1ccccc1F)N1CCN(c2ccc(-n3cccc3)nn2)CC1	-8.46
O=C(NCCCNc1ccc(C(F)(F)F)cn1)c1ccccc1	-8.08
CCS(=O)(=O)N1CCC(c2nnc(CN3CCCC3)n2C2CC2)CC1	-11.4
COCc1cn([C@@H]2c3ccccc3C3(CCNCC3)[C@H]2O)nn1	-6.38
NC(=O)N1CCC2(CCN(Cc3ccccn3)C2=O)C1 (stereo unspecified)	-0.213
Cc1noc(C)c1S(=O)(=O)NC(=O)COc1ccc(C(C)C)cc1	-9.11
CCS(=O)(=O)Nc1cnn(Cc2cccc(Cl)c2)c1	-10.7
Cc1cc(CNCC2(O)CCCN(CCCc3ccccc3)C2=O)n[nH]1 (stereo unspecified)	-5.17
Cc1cnn(CC2CCCN2Cc2nnc(Cc3ccccc3)o2)c1 (stereo unspecified)	8
CCN(CC)CC(=O)N1CCN(CCCc2ccncc2)CC1	-0.476
Cc1nc(C)n(CC2CCCN2CCC(=O)NC2CCCC2)n1 (stereo unspecified)	0.666
Cn1nccc1-c1ccc2nc(C3CCNCC3)nn2c1	10.5
Cc1ccc(F)cc1S(=O)(=O)NCc1cccnc1N(C)C	-10.3
CCCc1nc(NCCc2ccccc2)c2c(n1)c(C)nn2CC	-16.2
